Several values for one entry are separate records, joined by “and”; a condition that tells them apart may be missing. Equal entries are not always repeated. Where two headings read alike, the source gives them in different places.
Tests used:
[1] = test system: Q6ZSR9; parameters: method as in earlier work; conditions: cited from earlier work
[2] = Tumor drug concentration in tumor needle biopsy at day 17 (LC-MS-MS); format: in vivo, human; conditions: individual patient; for concentration at 17 day: human, tumor, oral, Tumor - Sunitinib concentration
Protocol: All tissue samples were immediately snap frozen (within 1 min) in liquid nitrogen and cryopreserved at −80 °C until the day of analysis.
Tissue biopsies were weighed accurately before analysis. Tissue homogenate was prepared by using a mechanical homogenizer. The tumor tissue was homogenized with the precellys lysing kit (bertin instruments®) in the Roche MagNA lyzer®. […] Tissue homogenate samples were directly analyzed.
Supplementary data S2 – Methods (Details)
samples; using a validated liquid chromatography–tandem mass spectrometry (LC-MS-MS).
The system consisted of an Acquity H‐Class UPLC system, coupled to a Xevo TQ‐S micro
tandem mass spectrometer. […]

[3] = CAM-assay, cited from earlier work
[4] = test system: Ki67; test: Immunohistochemistry of tumor biopsies, Ki67 (tumor cell proliferation); format: in vivo, human; conditions: 10 paired tumor biopsies, day 17
Protocol: (§1) Immunohistochemistry: Immunohistochemical staining was performed on 3–5 μm thick sections of the (freeze) tumor biopsies for CD3, CD31 and Ki67 according to standard methods (see Supplementary Data S2). Morphological characteristics were assessed in hematoxylin-eosin (H&E)-stained tissue sections. Evaluation of staining was performed by four investigators using light microscopy of serial tissue sections. […] Semi-quantification of CD31 staining was scored manually by a pathologist. The number of cells positive for CD3, CD31 was expressed as an estimated proportion of the total number of cells. […]
(§2) Finally, staining was
(§3) visualized with 3,3-diamino-benzidine-tetra hydrochloride (DAB), 0.3 mg/ml in 1 ml PBS
(§4) with 0.3 % H2O2. All slides were counterstained with hematoxylin.

[5] = test system: CD3; test: Immunohistochemistry of tumor biopsies, CD3 (T-cell infiltration); format: in vivo, human; conditions: 10 paired tumor biopsies
Protocol: as §1, §2, §3, §4

CCN(CC)CCNC(=O)c1c(C)[nH]c(/C=C2\C(=O)Nc3ccc(F)cc32)c1C [sunitinib]
IC50 [1]: 1.03 µM | Tumor - Sunitinib concentration ([2]; 300 mg O1W): 2373 µg/L and 19394 µg/L and 1332 µg/L and 2343 µg/L and 1738 µg/L and 9841 µg/L and 24517 µg/L and 25618 µg/L and 2008 µg/L and 18802 µg/L and 539 µg/L and 2318 µg/L | Tumor - Sunitinib concentration ([2]; 700 mg O2W): 24802 µg/L and 2377 µg/L and 49083 µg/L and 16359 µg/L and 12244 µg/L and 8913 µg/L and 51914 µg/L and 2247 µg/L | concentration at 17 day ([2]; 400 mg, 400 mg O2W): 987 ng/mL | concentration at 17 day ([2]; 800 mg, 800 mg O2W): 228 ng/mL | sunitinib tumor concentration, range ([3]; high-dose Q1W schedule): 7.8 to 130 µM | sunitinib tumor concentration, range ([3]; standard daily schedule): 7.0 to 37.4 µM | tumor cell proliferation (TCP), pre- versus on treatment biopsies [4]: no significant differences | T cell infiltration (CD3 staining), mean increase ([5]; baseline versus day 17, 95% CI 1.15–5.95, p-Value 0.009): 3.55 | T cell infiltration (CD3 staining) after 17 days of treatment ([5]; baseline 8.6%): 12.2%

From publication PMC9775433 (Cancers, 2022)
